A word on the melting point: it is the temperature, or range, at which the solid turns liquid.

The compound `Nc1ccc2c(c1)SN(CCCCN1CCN(c3ncccn3)CC1)C2` yielded a melting point of 150 to 151 °C.

`NCCC(O)(c1ccc(Br)cc1)c1cccnc1` (stereo not given) displayed a melting point of 95 to 115 °C.

On to `O=C(O)c1cccc(Oc2ncc(C(F)(F)F)cc2Cl)c1`, for which the melting point was determined as 158 °C.

For `CC(=O)NN=C(c1ccccc1)c1cc(C(C)(C)C)c(O)c(C(C)(C)C)c1`, the melting point was in the range of 205 to 206 °C.

As to `O=CN1CCC(c2noc3cc(Cl)ccc23)CC1`, the melting point is 114 to 115 °C.

As to `CC(C)=NOCc1nc2c(N)nc3ccccc3c2n1CCNC(=O)NC(C)C`, the melting point lay in the range of 230 to 231 °C.

In turn, `CC(C)(C)C(=O)c1c[nH]c2ncc(-c3ccccn3)nc12` had a melting point of 276 to 278 °C.

Regarding `Nc1ccc([N+](=O)[O-])cc1CO`, the melting point is 141 to 142 °C.

Turning to `CNC(=O)CCC(=O)c1c(O)cccc1OC`, the melting point is 125 °C.

With `COc1cc(C)c2ccc(Br)cc2n1`, the melting point fell in the range of 58 to 60 °C.

The compound `CCc1nnc2n1N=C1c3cc(OC)c(OC)cc3CC1S2` (stereo not given) registered a melting point of 212 °C.

As for `COc1c(Br)cc(Br)cc1CC#N`, the melting point lay within 87 to 88 °C.

In turn, `CC12CCC3c4ccc(O)cc4C(=O)C(Sc4ccc(O)cc4)C3C1CCC2O` (stereo not given) came in with a melting point of 120 to 124 °C.

Turning to `COc1c(C#N)cc(-c2c3ccccc3cc3sc4ccccc4c23)cc1C#N`, the melting point is 214 to 215 °C.

On to `O=C(Nc1cccc2c(=O)cc(C(=O)O)oc12)c1ccc2c(c1)CC(COCc1ccccc1)O2` (stereo not given), for which the melting point is 184 to 188 °C.

Take `O=C1c2ncccc2C(=O)c2c(-c3ccccc3NC(=O)C(F)(F)F)ccnc21`: the melting point is 205 °C.

Compound `CCCCCCC(C(=O)O)c1ccc(NC(=O)C2(O)c3ccccc3-c3ccccc32)cc1` (stereo not given) gave a melting point of 183 to 185 °C.

For `CCCCNC(=O)c1nc2cnn(CC)c2nc1C`, the melting point is 64 to 65 °C.

Take `N#Cc1ccc(O)cc1C(N)=O`: the melting point is 268 to 270 °C.

Compound `COc1ccc(N(CC(=O)OC(C)(C)C)C(=O)CNC(=O)Nc2cccc(C)c2)cc1` came in with a melting point of 158 °C.

For `CC(=O)OCC1c2c(c3ccccc3c3ccccc23)-c2c1c1ccccc1c1ccccc21`, the melting point fell in the range of 209 to 210 °C.

`C/C(=C\c1ccc(Cc2cccnc2)cc1)C(=O)Oc1ccccc1` showed a melting point of 52 to 53 °C.

The compound `CC(C)CNCC(=O)Nc1cccc2c1C(=O)c1c(NC(=O)CNCC(C)C)cccc1C2=O` had a melting point of 139 to 140 °C.

For the compound `Cc1oc(=O)oc1Cn1cc[nH]c(=O)c1=O`, the melting point is 225 to 226 °C.

`COC(=O)c1ccc(C(=O)NCc2cc(O)cc(O)c2)cc1Cl` had a melting point of 152 to 155 °C.

`CCC(=O)c1ccc(OCCCCl)cc1` displayed a melting point of 41 to 43 °C.

`O=c1cc(SCc2ccc(O)cc2)oc2cc(O)cc(O)c12` yielded a melting point of 222 to 225 °C.

`COc1ccc(NC(=O)C2=C(O)c3ccccc3S(=O)(=O)N2C)c(=O)cc1` registered a melting point of 251 to 253 °C.

In turn, `CCc1nc(NC)sc1C(=O)c1ccc(Cl)c([N+](=O)[O-])c1` gave a melting point of 186 to 190 °C.

Regarding `CCOc1cc(C2COCCC2NC(=O)c2ccc(C(=O)N(C(C)C)C(C)C)cc2)ccc1OC` (stereo not given), the melting point was in the range of 166 to 168 °C.

In turn, `CNC1CCN(c2ncc(C(F)(F)F)s2)C1=O` (stereo not given) returned a melting point of 108 to 109 °C.

`COC(=O)c1cc2cc(C3OCCO3)ccc2[nH]1` registered a melting point of 71 to 72 °C.

The compound `CCOC(=O)c1cnn2c1c(SC)nc1ccccc12` gave a melting point of 97 to 98 °C.

On to `CCCCCCCCCCCCCCc1cccc(O)c1`, for which the melting point was in the range of 38 to 40 °C.

Take `NC(=O)c1nc(-c2cccc(O)c2)nc2c1[nH]c(=O)n2-c1ccccc1C(F)(F)F`: the melting point lay within 363 to 365 °C.

`CCOC(=O)/C=C/c1ccc(OCc2nc(-c3ccccc3)oc2C)nc1` registered a melting point of 109 to 110 °C.

As to `OCCCc1cnoc1-c1ccc2c(c1)OCO2`, the melting point was in the range of 45 to 46 °C.

Compound `C=CC(O)c1cccc(C=Cc2ccc3ccc(Cl)cc3n2)c1` (stereo not given) came in with a melting point of 110 to 112 °C.

Compound `O=C(O)CCC(O)c1ccc(-c2ccc(Cl)cc2)o1` (stereo not given) gave a melting point of 100 to 101 °C.

As to `COC(=O)C1(C)Cc2c([nH]c3ccc(OC)cc23)C(c2ccccc2)N1` (stereo not given), the melting point was in the range of 172 to 175 °C.

With `O=C(O)CCc1c(C(=O)O)[nH]c2cc(I)ccc12`, the melting point is 230 to 232 °C.

Compound `COc1ccc(N2CCN(CCC(O)COc3ccc(F)cc3)CC2)cc1` (stereo not given) registered a melting point of 78 to 80 °C.

As for `C=CCOc1ccc2c(c1)Oc1cc(O)ccc1C21OC(=O)c2ccccc21` (stereo not given), the melting point was determined as 204 °C.

The compound `CS(=O)(=O)N1CCC(C(=O)N(CCCN2CCC(Cc3ccccc3)CC2)c2ccccc2)CC1` registered a melting point of 116 to 118 °C.

Regarding `CCCCc1nc2c(N)nc3cccnc3c2n1CCCCNC(=O)c1ccc(C(OCCN(C)C)c2ccccc2)cc1` (stereo not given), the melting point is 105 to 108 °C.

Take `Cc1ccccc1-c1cccc(C=CC(=O)O)c1`: the melting point was 124 to 125 °C.

`CC1(c2nn(-c3c(Cl)cc(C(F)(F)F)cc3Cl)c(N)c2C#N)CC1(Cl)Cl` (stereo not given) came in with a melting point of 209 to 210 °C.

As for `O=C1CCOc2ccc([N+](=O)[O-])cc21`, the melting point was in the range of 171 to 173 °C.

The compound `COc1c(C)c(C)c(OC)c(C(O)(c2ccc(C(C)C)cc2)C2CCN(Cc3ccccc3)CC2)c1C` (stereo not given) displayed a melting point of 105 to 108 °C.

Compound `CC1(C)CC(=O)c2cc(C#N)ccc2O1` returned a melting point of 119 to 120 °C.

Regarding `CCOC(=O)c1c(C)oc(=O)c(-c2c(C)cc(C)cc2C)c1OC(C)=O`, the melting point lay in the range of 107 to 109 °C.

`CC1(C)C(=O)C(C)(C)c2cc(N)c(N)cc21` gave a melting point of 179 to 180 °C.

In the case of `CCOC(=O)c1cc(C(=O)c2cccc(S(=O)(=O)F)c2)sc1N=Nc1ccc(O)c(N)n1`, the melting point is 170 to 172 °C.

Compound `Brc1cnc2c(c1)ncn2-c1cccc(CN2CCOCC2)c1` yielded a melting point of 176 to 178 °C.

With `CCOC(=O)c1c(CCn2ccnc2)nc2cc(OC)c(OC)cc2c1-c1ccc(OC)c(OC)c1`, the melting point lay within 173 to 174 °C.

For the compound `O=C(O)CCCN(C(=O)c1ccc(Cl)cc1)c1cccc2ccccc12`, the melting point was 173 to 174 °C.

Turning to `ClCc1ccc(OCc2csc(-c3ccccc3)n2)cc1`, the melting point was in the range of 98 to 99 °C.

As for `O=C(c1ccccc1)c1cccc2c(CC(C(=O)O)C(=O)O)c[nH]c12`, the melting point was 188 to 189 °C.

In turn, `CC(=O)N1CCCN(CC2=Nc3cccc4c(=O)[nH]nc(c34)N2)CC1` came in with a melting point of 191 to 193 °C.

For `Cc1ccc(N=c2sc3ncccc3c(=O)n2C)cc1`, the melting point worked out at 144 °C.

For `CC1CCCC=C1c1ccc(C(=O)O)cc1` (stereo not given), the melting point was 146 to 147 °C.

`CCCCNc1nc(C)c(C#N)cc1C(=O)OCC` registered a melting point of 61 to 63 °C.

`CS(=O)(=O)c1ccc(C(CC2CCC(=O)C2)C(=O)O)cc1Cl` (stereo not given): the melting point was 164 to 167 °C.

For `CN1CCC(c2c[nH]c3ccc(OS(=O)(=O)c4ccc(Cl)cc4)cc23)CC1`, the melting point lay in the range of 182 to 184 °C.

The compound `COC(=O)c1cc(C(=O)c2ccccc2)ccc1OC` registered a melting point of 88 °C.

The values are drawn from a melting point compilation (Tetko et al.; mined from patent text by program, amines drawn as free bases though some values may be those of a salt).
